The NIST ThermoML archive (doi:10.1021/je100757w)
± gives the expanded uncertainty stated by the source.

Assay: xn = mol fraction of the nth substance listed
Details: for surface tension liquid-gas: Ring tensiometer; for mass density: 101.3 kPa, Liquid

COCCOCCOCCOCCOC [2,5,8,11,14-pentaoxapentadecane] + O
Details | mass density [kg/m3] | surface tension liquid-gas [mN/m]
298.15 K, x1 = 0.0016 | – | 50.16 ± 0.86
298.15 K, x1 = 0.002 | – | 48.89 ± 0.87
298.15 K, x1 = 0.0026 | – | 47.04 ± 0.86
298.15 K, x1 = 0.0031 | – | 46.37 ± 0.85
298.15 K, x1 = 0.0092 | – | 43.11 ± 0.8
298.15 K, x1 = 0.0142 | 1011.13 ± 0.29 | –
298.15 K, x1 = 0.0174 | – | 41.23 ± 0.79
298.15 K, x1 = 0.0283 | – | 40.1 ± 0.78
298.15 K, x1 = 0.057 | – | 39.54 ± 0.78
298.15 K, x1 = 0.0746 | – | 38.88 ± 0.77
298.15 K, x1 = 0.0747 | 1035.25 ± 0.38 | –
298.15 K, x1 = 0.1026 | – | 38.65 ± 0.77
298.15 K, x1 = 0.1452 | 1036.72 ± 0.42 | –
298.15 K, x1 = 0.1497 | – | 37.66 ± 0.77
298.15 K, x1 = 0.2264 | – | 36.29 ± 0.77
298.15 K, x1 = 0.2309 | 1031.3 ± 0.47 | –
298.15 K, x1 = 0.2862 | – | 35.79 ± 0.77
298.15 K, x1 = 0.2974 | 1026.41 ± 0.52 | –
298.15 K, x1 = 0.4065 | 1020.2 ± 0.65 | –
298.15 K, x1 = 0.4268 | – | 35.09 ± 0.78
298.15 K, x1 = 0.5085 | 1016.34 ± 0.81 | –
298.15 K, x1 = 0.5414 | – | 34.92 ± 0.8
298.15 K, x1 = 0.5863 | 1014.23 ± 0.96 | –
298.15 K, x1 = 0.6144 | – | 34.46 ± 0.81
298.15 K, x1 = 0.6788 | 1012.16 ± 1.2 | –
298.15 K, x1 = 0.787 | – | 34.2 ± 0.85
298.15 K, x1 = 0.8139 | 1009.47 ± 1.5 | –
298.15 K, x1 = 0.8286 | – | 34.19 ± 0.86
298.15 K, x1 = 0.854 | 1008.76 ± 1.6 | –
298.15 K, x1 = 0.9196 | – | 33.91 ± 0.88
298.15 K, x1 = 0.9569 | 1007.43 ± 2 | –
298.15 K, x1 = 1 | 1007.26 ± 2.1 | 33.74 ± 0.89
308.15 K, x1 = 0.0014 | – | 51 ± 0.86
308.15 K, x1 = 0.0023 | – | 46.99 ± 0.83
308.15 K, x1 = 0.0032 | – | 45.45 ± 0.82
308.15 K, x1 = 0.004 | – | 44.21 ± 0.81
308.15 K, x1 = 0.009 | – | 42.87 ± 0.8
308.15 K, x1 = 0.0142 | 1006.56 ± 0.27 | –
308.15 K, x1 = 0.0175 | – | 39.9 ± 0.78
308.15 K, x1 = 0.0275 | – | 39.08 ± 0.77
308.15 K, x1 = 0.0539 | – | 38.34 ± 0.77
308.15 K, x1 = 0.0715 | – | 37.36 ± 0.76
308.15 K, x1 = 0.0747 | 1027.26 ± 0.35 | –
308.15 K, x1 = 0.099 | – | 37.28 ± 0.76
308.15 K, x1 = 0.1452 | 1027.67 ± 0.39 | –
308.15 K, x1 = 0.1478 | – | 35.51 ± 0.75
308.15 K, x1 = 0.2212 | – | 34.95 ± 0.76
308.15 K, x1 = 0.2309 | 1022.01 ± 0.44 | –
308.15 K, x1 = 0.2974 | 1017.12 ± 0.49 | –
308.15 K, x1 = 0.3074 | – | 34.22 ± 0.76
308.15 K, x1 = 0.4065 | 1010.92 ± 0.61 | –
308.15 K, x1 = 0.4252 | – | 33.85 ± 0.77
308.15 K, x1 = 0.5085 | 1007.06 ± 0.77 | –
308.15 K, x1 = 0.5523 | – | 33.58 ± 0.79
308.15 K, x1 = 0.5863 | 1004.92 ± 0.92 | –
308.15 K, x1 = 0.6404 | – | 33.32 ± 0.8
308.15 K, x1 = 0.6788 | 1002.83 ± 1.1 | –
308.15 K, x1 = 0.7835 | – | 33.05 ± 0.83
308.15 K, x1 = 0.8139 | 1000.17 ± 1.5 | –
308.15 K, x1 = 0.814 | – | 32.88 ± 0.84
308.15 K, x1 = 0.854 | 999.47 ± 1.6 | –
308.15 K, x1 = 0.9479 | – | 32.64 ± 0.87
308.15 K, x1 = 0.9569 | 998.16 ± 1.9 | –
308.15 K, x1 = 1 | 997.98 ± 2.1 | 32.45 ± 0.88
318.15 K, x1 = 0.0013 | – | 58.46 ± 0.93
318.15 K, x1 = 0.0019 | – | 54.2 ± 0.89
318.15 K, x1 = 0.0024 | – | 51.29 ± 0.89
318.15 K, x1 = 0.0033 | – | 47.59 ± 0.86
318.15 K, x1 = 0.0098 | – | 42.27 ± 0.79
318.15 K, x1 = 0.0142 | 1001.29 ± 0.26 | –
318.15 K, x1 = 0.0187 | – | 40.41 ± 0.78
318.15 K, x1 = 0.0314 | – | 40.39 ± 0.78
318.15 K, x1 = 0.0584 | – | 38.25 ± 0.77
318.15 K, x1 = 0.0747 | 1019.04 ± 0.33 | –
318.15 K, x1 = 0.0748 | – | 37.24 ± 0.76
318.15 K, x1 = 0.1022 | – | 36.5 ± 0.76
318.15 K, x1 = 0.1452 | 1018.51 ± 0.36 | –
318.15 K, x1 = 0.1482 | – | 35.37 ± 0.75
318.15 K, x1 = 0.2219 | – | 33.81 ± 0.75
318.15 K, x1 = 0.2309 | 1012.58 ± 0.41 | –
318.15 K, x1 = 0.2974 | 1007.72 ± 0.46 | –
318.15 K, x1 = 0.3152 | – | 33.3 ± 0.75
318.15 K, x1 = 0.4065 | 1001.56 ± 0.58 | –
318.15 K, x1 = 0.4328 | – | 32.94 ± 0.77
318.15 K, x1 = 0.5085 | 997.73 ± 0.75 | –
318.15 K, x1 = 0.5259 | – | 32.75 ± 0.78
318.15 K, x1 = 0.5863 | 995.58 ± 0.91 | –
318.15 K, x1 = 0.5974 | – | 32.47 ± 0.79
318.15 K, x1 = 0.6788 | 993.48 ± 1.1 | –
318.15 K, x1 = 0.7667 | – | 32.22 ± 0.82
318.15 K, x1 = 0.8139 | 990.83 ± 1.5 | –
318.15 K, x1 = 0.8249 | – | 32.05 ± 0.83
318.15 K, x1 = 0.854 | 990.15 ± 1.6 | –
318.15 K, x1 = 0.9324 | – | 31.94 ± 0.85
318.15 K, x1 = 0.9569 | 988.89 ± 1.9 | –
318.15 K, x1 = 1 | 988.72 ± 2.1 | 31.71 ± 0.87
